In brackets after ≈: the same amount, converted by molar mass. Like-named read-outs stand apart in the source and are kept apart here.
Key:
Microsporon felinum = assay: series dilution test, MIC; type: cell-based; conditions: Table B
Candida albicans [1] = assay: series dilution test, MIC; type: cell-based
Aspergillus spec. = assay: series dilution test, MIC; type: cell-based
Trich. ment. = assay: series dilution test, MIC; type: cell-based
[2] = pharmacokinetics after oral administration; type: in vivo; conditions: serum, 50 mg/kg of body weight, mice and guinea pigs, read-out: serum peak concentrations
Procedure: c. Guideline data on the pharmacokinetics after oral administration. The preparations claimed are resorbed well on oral administration to mice and guinea pigs and after doses of 50 mg/kg of body weight give serum peak concentrations of 4-6 γ/ml for the case of the hydrochloride.

Cryptococcus neof. = assay: series dilution test, MIC; type: cell-based; conditions: Table A
Torulopsis glab. = assay: series dilution test, MIC; type: cell-based; conditions: Table A
Trichomonas vaginalis = assay: series dilution test, MIC; type: cell-based; conditions: Table A
Coccidioides immitis = assay: microbe, parasite or virus in culture; type: cell-based; conditions: for MIC: read-out: MIC values; for MIC values: Table A
Staph. aureus = assay: series dilution test, MIC; type: cell-based; conditions: Table A; for MIC: Staphylococcus aureus
Sporothrix Schenckii = assay: series dilution test, MIC; type: cell-based; conditions: Table A
Microsporon canis = assay: series dilution test, MIC; type: cell-based; conditions: for MIC: read-out: MIC values
Pityrosporum ovale = assay: series dilution test, MIC; type: cell-based; conditions: Table A; for MIC: Malassezia furfur
Candida albicans [3] = assay: experimental candidosis in mice, oral administration; type: in vivo, White mice of the CF1 SPF strain
Procedure: I. on candidosis in mice.
White mice of the CF1 SPF strain are infected with 1-3 × 10^6 Candida albicans cells intravenously by puncture of the tail vein. Untreated control animals die from the 3rd to the 6th day after infection as a result of the candidosis of the organs which develops. If the preparations claimed are given orally in doses of 2 × 6.25 - 2 × 150 mg/kg of body weight, starting from the day of infection and up to the 5th day after infection, the following survival rates are observed: […]

[4] = 2 × 6.25 mg/kg of body weight, 6.25 mg/kg
[5] = 2 × 12.5 mg/kg of body weight, 12.5 mg/kg
[6] = 2 × 25 mg/kg of body weight, 25 mg/kg

O=C(c1ccccc1)C(Oc1c(Cl)cccc1Cl)n1ccnc1 (stereo not drawn)
MIC (Microsporon felinum): 40 µg/mL (≈ 115 µM) | MIC (Candida albicans [1]; Table B): 4 µg/mL (≈ 11.5 µM) | MIC (Aspergillus spec.; Table B): 100 µg/mL (≈ 288 µM) | MIC (Trich. ment.; Table B, Trichophyton ment.): 4 µg/mL (≈ 11.5 µM)

OC(O)(c1ccccc1)C(Oc1cccc(Cl)c1)n1ccnc1 (stereo not drawn)
MIC (Microsporon felinum): 40 µg/mL (≈ 121 µM) | MIC (Candida albicans [1]; Table B): 4 µg/mL (≈ 12.1 µM) | MIC (Aspergillus spec.; Table B): 40 µg/mL (≈ 121 µM) | MIC (Trich. ment.; Table B, Trichophyton ment.): 4 µg/mL (≈ 12.1 µM)

O=C(c1ccccc1)C(Oc1ccc(Cl)cc1)(c1ccccc1)n1ccnc1 (stereo not drawn)
MIC (Microsporon felinum): 40 µg/mL (≈ 103 µM) | MIC (Candida albicans [1]; Table B): 10 µg/mL (≈ 25.7 µM) | MIC (Aspergillus spec.; Table B): 10 µg/mL (≈ 25.7 µM) | MIC (Trich. ment.; Table B, Trichophyton ment.): 10 µg/mL (≈ 25.7 µM)

O=C(c1ccccc1)C(Oc1cccc(Cl)c1)n1ccnc1 (stereo not drawn)
MIC (Microsporon felinum): 40 µg/mL (≈ 128 µM) | MIC (Candida albicans [1]; Table B): 10 µg/mL (≈ 32 µM) | MIC (Aspergillus spec.; Table B): 40 µg/mL (≈ 128 µM) | MIC (Trich. ment.; Table B, Trichophyton ment.): 4 µg/mL (≈ 12.8 µM)

CC(C)(C)C(=O)C(Cn1ccnc1)Oc1ccc(Cl)cc1 (stereo not drawn)
MIC (Candida albicans [1]; Table B): 4 µg/mL (≈ 13 µM) | MIC (Aspergillus spec.; Table B): 8 µg/mL (≈ 26.1 µM) | MIC (Trich. ment.; Table B, Trichophyton ment.): 4 µg/mL (≈ 13 µM)

CC(C)(C)C(=O)C(Cn1ccnc1)Oc1ccc(Br)cc1 (stereo not drawn)
MIC (Candida albicans [1]; Table B): 4 µg/mL (≈ 11.4 µM) | MIC (Aspergillus spec.; Table B): 4 µg/mL (≈ 11.4 µM) | MIC (Trich. ment.; Table B, Trichophyton ment.): 8 µg/mL (≈ 22.8 µM)

CC(C)(C)C(=O)C(Cn1ccnc1)Oc1ccccc1-c1ccccc1 (stereo not drawn)
MIC (Candida albicans [1]; Table B): 4 µg/mL (≈ 11.5 µM) | MIC (Aspergillus spec.; Table B): 8 µg/mL (≈ 23 µM) | MIC (Trich. ment.; Table B, Trichophyton ment.): 8 µg/mL (≈ 23 µM)

CC(C)(C)C(=O)C(Cn1ccnc1)Oc1ccc(F)cc1 (stereo not drawn)
MIC (Candida albicans [1]; Table B): 4 µg/mL (≈ 13.8 µM) | MIC (Aspergillus spec.; Table B): 4 µg/mL (≈ 13.8 µM) | MIC (Trich. ment.; Table B, Trichophyton ment.): 8 µg/mL (≈ 27.6 µM)

CC(C)(C)C(=O)C(Oc1ccc(-c2ccc(Cl)cc2)cc1)n1ccnc1.Cl (stereo not drawn) [Example 1, 1-(imidazol-1-yl)-1-[4-(4-chlorophenyl)phenoxy]-3,3-dimethyl-butan-2-one hydrochloride]
Cmax [2]: 4000 to 6000 ng/mL

COC1=CC(=O)C[C@@H](C)[C@]12Oc1c(Cl)c(OC)cc(OC)c1C2=O [Griseofulvin, griseofulvin]
MIC (Cryptococcus neof.): > 100 µg/mL | MIC (Torulopsis glab.): > 100 µg/mL | MIC (Trichomonas vaginalis): > 1000 µg/mL | MIC (Coccidioides immitis): > 100 µg/mL | MIC (Staph. aureus): > 100 µg/mL | MIC (Candida albicans [1]; Table A): > 100 µg/mL | MIC (Aspergillus spec.; Table A): 40 to 100 µg/mL (≈ 113 to 283 µM) | MIC (Sporothrix Schenckii; Sporothrix schenckii): > 100 µg/mL | MIC (Trich. ment.; Table A, Trich. ment.): 5 to 10 µg/mL (≈ 14.2 to 28.3 µM) | MIC (Microsporon canis): 5 to 10 µg/mL (≈ 14.2 to 28.3 µM) | MIC (Pityrosporum ovale): > 100 µg/mL

C[C@@H]1[C@H](O)[C@@H](C)/C=C/C=C/CC/C=C/C=C/C=C/C=C/C(O[C@H]2O[C@H](C)[C@@H](O)[C@H](N)[C@@H]2O)CC2O[C@](O)(CC(O)C(O)CCC(O)CC(O)CC(O)CC(=O)O[C@H]1C)CC(O)C2C(=O)O (stereo partly drawn) [Nystatin, nystatin]
MIC values (Cryptococcus neof.): 4 to 10 µg/mL | MIC values (Torulopsis glab.): 5 µg/mL (≈ 5.4 µM) | MIC values (Trichomonas vaginalis): > 1,000 γ/ml | MIC values (Coccidioides immitis): 40 µg/mL (≈ 43.2 µM) | MIC values (Staph. aureus): > 100 µg/mL | MIC values (Candida albicans [1]; Table A): 5 µg/mL (≈ 5.4 µM) | MIC values (Aspergillus spec.; Table A): 40 to 100 µg/mL | MIC values (Sporothrix Schenckii): 40 µg/mL (≈ 43.2 µM) | MIC values (Trich. ment.; Table A, Trich. ment.): 20 µg/mL (≈ 21.6 µM) | Survival rates on the 6th day after infection (Candida albicans [3]; 2 × 6.25 mg/kg of body weight): < 10% | Survival rates on the 6th day after infection (Candida albicans [3]; 2 × 12.5 mg/kg of body weight): < 10% | Survival rates on the 6th day after infection (Candida albicans [3]; 2 × 25 mg/kg of body weight): < 10% | Survival rates on the 6th day after infection (Candida albicans [3]; 2 × 50 mg/kg of body weight): < 10% | Survival rates on the 6th day after infection (Candida albicans [3]; 2 × 100 mg/kg of body weight): 30% | Survival rates on the 6th day after infection (Candida albicans [3]; 2 × 150 mg/kg of body weight): 50% | MIC values (Microsporon canis; Table A, Microsporon canis): 20 to 40 µg/mL

CC(C)(C)C(=O)C(Oc1ccc(-c2ccc(Cl)cc2)cc1)n1ccnc1 (stereo not drawn) [drawing 4]
MIC (Cryptococcus neof.): 1 to 2 µg/mL (≈ 2.71 to 5.42 µM) | MIC (Torulopsis glab.): 2 µg/mL (≈ 5.42 µM) | MIC (Trichomonas vaginalis): 250 µg/mL (≈ 678 µM) | MIC (Coccidioides immitis): 0.1 µg/mL (≈ 0.271 µM) | MIC (Staph. aureus): 8 µg/mL (≈ 21.7 µM) | MIC (Candida albicans [1]; Table A): 2 to 4 µg/mL (≈ 5.42 to 10.8 µM) | MIC (Aspergillus spec.; Table A): < 1 µg/mL | MIC values (Sporothrix Schenckii): 0.1 µg/mL (≈ 0.271 µM) | MIC (Trich. ment.; Table A, Trich. ment.): < 1 µg/mL | MIC (Microsporon canis; Table A, Microsporon canis): < 1 µg/mL | MIC (Pityrosporum ovale): < 1 µg/mL

CC(C)(C)C(=O)C(Oc1ccc(-c2ccc(Cl)cc2)cc1)n1ccnc1 (stereo not drawn) [drawing 5]
MIC values (Cryptococcus neof.): 1 to 2 µg/mL | MIC values (Torulopsis glab.): 2 µg/mL (≈ 5.42 µM) | MIC values (Trichomonas vaginalis): 250 µg/mL (≈ 678 µM) | MIC values (Coccidioides immitis): 0.1 µg/mL (≈ 0.271 µM) | MIC values (Staph. aureus): 4 µg/mL (≈ 10.8 µM) | MIC values (Candida albicans [1]; Table A): 2 µg/mL (≈ 5.42 µM) | MIC values (Aspergillus spec.; Table A): < 1 µg/mL | MIC values (Sporothrix Schenckii): 0.5 µg/mL (≈ 1.36 µM) | MIC values (Trich. ment.; Table A, Trich. ment.): < 1 µg/mL | MIC values (Microsporon canis; Table A, Microsporon canis): < 1 µg/mL | MIC values (Pityrosporum ovale): < 1 µg/mL

CC(C)(C)C(=O)C(Oc1ccc(-c2ccc(Cl)cc2)cc1)n1ccnc1 (stereo not drawn) [drawing 14]
Survival rates on the 6th day after infection (Candida albicans [3]; [4]): 55% | Survival rates on the 6th day after infection (Candida albicans [3]; [5]): 70% | Survival rates on the 6th day after infection (Candida albicans [3]; [6]): 80% | Survival rates on the 6th day after infection (Candida albicans [3]; 2 × 50 mg/kg of body weight): 100% | Survival rates on the 6th day after infection (Candida albicans [3]; 2 × 100 mg/kg of body weight): 100% | Survival rates on the 6th day after infection (Candida albicans [3]; 2 × 150 mg/kg of body weight): 100%

CC(C)(C)C(=O)C(Oc1ccc(-c2ccc(Cl)cc2)cc1)n1ccnc1 (stereo not drawn) [drawing 15]
Survival rates on the 6th day after infection (Candida albicans [3]; [4]): 95% | Survival rates on the 6th day after infection (Candida albicans [3]; [5]): 95% | Survival rates on the 6th day after infection (Candida albicans [3]; [6]): 100% | Survival rates on the 6th day after infection (Candida albicans [3]; 2 × 50 mg/kg of body weight): 100% | Survival rates on the 6th day after infection (Candida albicans [3]; 2 × 100 mg/kg of body weight): 100% | Survival rates on the 6th day after infection (Candida albicans [3]; 2 × 150 mg/kg of body weight): 100%
